Measurements: publication PMC12374861, “Synthetic Peptides Suppress Nervous Necrosis Virus Absorption and Improve Survival Rates in European Sea Bass” (Marine Biotechnology (New York, N.y.), 2025)
Ends that are not written are not given here.

How the values were obtained:
[1] = system: E-11 cells; assay: MTT cytotoxicity test on E-11 cells; assay type: cell-based; conditions: 24 h at 25 °C, mean of n = 3, control = 100.0
Protocol: Synthetic peptides cytotoxicity on E − 11 cells was assessed using the MTT (Sigma) test with serial peptide dilutions (1000–4 µg/mL in L − 15 medium; n = 3; 24 h at 25 °C) as elsewhere (Cervera et al. [2024c]). Absorbance was measured at 570 nm (BMG Labtech); blanks lacked cells. Cell viability was calculated as the OD ratio of treated to untreated cells × 100, normalized at 690 nm.
Supplementary data S4: Cell viability (%) of E-11 cells after incubation with the synthetic peptides for 24 h. Data represent the mean ± SEM (n=3).

[2] = system: SJNNV; assay type: cell-based, striped jack nervous necrosis virus (strain SJNag97); conditions: virus (MOI 0.01) incubated with 500 μg/mL peptide for 15 min at 25 °C, titrated in E-11 cells; control virus + PBS; representative of two independent assays; Fig. 2B
Protocol: (§1) Parental RGNNV (strain It/411/96), SJNNV (strain SJNag97), and reassortant isolates (RGNNV/SJNNV, 367.2.2005; SJNNV/RGNNV, 389/I96) were used. Viruses were propagated in E − 11 cells cultured in L-15 Leibovitz medium (BioWest) supplemented with 5% FBS, 2 mM L-glutamine, and 100 IU/mL penicillin/streptomycin (Thermo Fisher Scientific) at 25 °C. Infected monolayers were incubated at 25 °C until extensive cytopathic effect (CPE) developed. Supernatants were then harvested, centrifuged, and titrated in triplicate using the end-point dilution method, expressed as TCID₅₀/mL (Reed and Müench [1938]).
(§2) For in vitro antiviral assays, viral cultures (MOI 0.01) from parental and reassortant strains were incubated with peptides (single or combined) using a non-lethal concentration previously tested (500 μg/mL; León et al. [2020]), for 15 min at 25 °C with gentle agitation. Controls were virus samples incubated with PBS (100% viral activity). Treated samples were titrated as previously. After medium removal, cells were exposed to ten-fold viral dilutions in 2% FBS. CPE was monitored daily for 10 days, and viral titres were calculated as TCID₅₀/mL (Reed and Müench [1938]) and expressed as viral titre or percent inhibition relative to controls.
Fig. 2 Designed peptides, single or combined, reduce the NNV absorption in vitro. NNV parental or reassortant genotypes were incubated with 500 μg/mL of the synthetic peptides for 15 min. Then, the viruses were titrated in the E − 11 cell line. Control samples consisted on virus incubated with the same amount of phosphate buffer saline. (A) Viral titer (TCID50/mL) and (B) % of virus inhibition with respect to the controls are represented. Data are representative of two independent assays. […] Each bar was matched to a substance by its colour and by the order of the legend.

[3] = system: RGNNV; assay: RGNNV adsorption efficiency, progeny production and replication kinetics in P4 pre-treated E-11 cells; assay type: cell-based, red-spotted grouper nervous necrosis virus
Protocol: Based on in vivo results (see below), the P4 effect on RGNNV replication was further assessed by analysing viral adsorption efficiency and progeny production, as previously (Valero et al. [2021b]) with slight modifications. Intracellular and extracellular viral kinetics were examined using semi-confluent E − 11 monolayers in 12-well plates (Sarstedt) treated with P4 (500 µg/mL) for 24 h; untreated cells served as controls. After treatment, supernatants were removed, cells washed thrice, and infected with RGNNV (MOI 0.01) for 45 min. Residual inoculum was collected, and monolayers washed and overlaid with L-15 for incubation at 25 °C with daily CPE monitoring. Supernatants were collected at 8, 12, 24, and 48 h post-infection (hpi); cells were washed, scraped and stored. For extracellular kinetics, supernatants were collected until 168 hpi. All samples were clarified by centrifugation (2000 × g, 10 min). Titrations were performed for: (i) total inoculated virus (TIV), (ii) non-attached virus (NAV), and (iii) viral progeny (VP). Assays were conducted in triplicate.
Formulas used for impact of synthetic peptides on RGNNV replication in vitro assay are the following: • AbsorbedvirusAV=TIV-NAV • AdsorptionefficacyAE=AV/TIV×100 • Productionrate(PR)=VP/AV • Relativeratioofproduction(RRP)=PRP4+RGNNV/PRRGNNV
Fig. 3 The pre-treatment with P4 synthetic peptide partially disrupts the replication of RGNNV in vitro. (A) Intracellular replication kinetics; (B) Viral production in cell supernatants; and (C, D) Genome synthesis in cell lysates by means of transcriptional levels of rdrp (C) and cp (D) genes. Monolayers of E-11 were incubated with 500 µg/mL of P4 or untreated for 24 h and then infected with […] nervous necrosis virus (RGNNV) (n = 3). Supernatants and cell lysates were collected at 8, 12, 24, 48 h post-infection (hpi). Additionally, supernatants were sampled at 168 hpi for extracellular replication kinetic analysis. Infectious titers were determined by the end-point titration method (Reed and Müench [1938]) and expressed as mean Log10 TCID50/mL ± standard error of the mean (SEM). Relative expression was presented as the mean ± SEM (n = 3). Asterisks indicate significant differences among groups according to the Student-t test (p < 0.05)

[4] = system: RGNNV; assay: RGNNV in vivo bath challenge of European sea bass with peptide injection after infection; set-up: species or system European sea bass (Dicentrarchus labrax); conditions: for Clinical signs of VER disease, severity score: four-rank scale 1-4, sea bass, RGNNV bath challenge, 1 µg peptide/g i.m., Fig. 4B; for Relative percent survival (RPS): juvenile sea bass, bath infection 3.16 × 10^4 TCID₅₀ RGNNV/mL for 2 h, then intramuscular injection 1 µg peptide/g, 23 dpi, infected PBS group 63.6% survival; for RGNNV cp gene expression in the brain / RGNNV rdrp gene expression in the brain: qPCR relative to ef1a, 2 dpi, n = 6, 1 µg peptide/g i.m. after RGNNV bath challenge; for RGNNV cp gene expression in the brain: Fig. 5A; for RGNNV rdrp gene expression in the brain: Fig. 5B
Protocol: RGNNV In vivo Challenge of European Sea Bass
A total of 375 sea bass were randomly assigned to eight experimental groups (in duplicate) and acclimated for 15 days. Seven groups were infected by immersion (10 L; 3.16 × 10^4 TCID₅₀ RGNNV/mL; 2 h), while a mock-infected control received conditioned medium. […] Combinations were selected according to the results obtained in the competitive in vitro assay against RGNNV (see below). Disease signs and mortalities were monitored daily for 23 days post-infection (dpi) using a four-rank scale (Valero et al. [2021a]). Fish (n = 6/group/time-point) were sampled at 2 and 23 dpi, euthanized with clove oil, bled, and weighed. Brain, NNV target tissue, and head-kidney, major hematopoietic tissue in fish, were dissected, frozen in TRIzol (Life Technologies), and stored at − 80 °C.
For viral load analysis, total RNA was extracted from sea bass brain and head-kidney using TRIzol (Life Technologies) and from E − 11 cells using the GenJET RNA Purification Kit (Thermo Fisher Scientific), following manufacturer protocols. One microgram of RNA was DNAse I-treated (1 U/µL; Thermo Scientific), and cDNA was synthesized using Superscript IV Reverse Transcriptase (Invitrogen). qPCR was performed on a QuantStudio 5 Flex (Applied Biosystems) to quantify cp, rdrp and mx genes using PowerUp SYBR Green reagents (Applied Biosystems). The protocol included a 95 °C hold, then 40 cycles (95 °C; 15 s) and 60 °C for 1 min. Relative expression was calculated using the 2^⁻ΔCt method (Livak and Schmittgen [2001]), with ef1a as the endogenous control. Primers (Supplementary Data S2) were validated by melting curve analysis and negative controls.
Fish mortality was analysed using Kaplan–Meier survival curves with log-rank (Mantel–Cox) tests for significance. Relative gene expression was evaluated by one-way ANOVA (p ≤ 0.05) followed by Tukey’s test. Viral kinetics were compared between P4-treated and untreated groups using Student’s t-test (p ≤ 0.05) at specific time points. All analyses were performed with IBM SPSS Statistics 20.
Fig. 4 Therapeutic administration of synthetic peptides improves survival and symptomatology in […] (RGNNV)-infected European sea bass juveniles. […] A mock-infected group was treated twice with only PBS. (A) Kaplan–Meier survival curves; (B) Heat-map representing the cumulated number of fish showing clinical signs of VER disease attending to their severity: (1) changes of the color of the skin, slower rhythm of swimming and/or slower reaction to external stimuli as feeding; (2) alterations in the swimming balance and/or erratic swimming spasms; (3) continuous erratic swimming; and (4) complete incapacity to keep balance, swim and/or move without external stimuli. VER, viral encephalopathy and retinopathy
Fig. 5 Therapeutic administration of synthetic peptides decreased viral loads in the brain without additional mx gene regulation in the sea bass juveniles head-kidney infected with red-spotted grouper nervous necrosis virus (RGNNV). […] A mock-infected group was treated twice with only PBS. (A–C) Transcription levels of RGNNV cp (A) and rdrp (B) genes in the brain and (C) mx gene in the head-kidney. Data represent the relative gene expression mean ± SEM (n = 6). Different letters indicate significant differences among groups according to the ANOVA (p < 0.05)

[5] = system: RGNNV/SJNNV reassortant; assay: In vitro antiviral (competition) assay: virus incubated with peptide, then titrated in E-11 cells; assay type: cell-based, RGNNV/SJNNV reassortant (367.2.2005); conditions: virus (MOI 0.01) incubated with 500 μg/mL peptide for 15 min at 25 °C, control virus + PBS, representative of two independent assays, Fig. 2B
Protocol: as §1, §2
Fig. 2 Designed peptides, single or combined, reduce the NNV absorption in vitro. […]

Substance | Viability (%) of E-11 cells, mean ([1]; peptide 0.00411 mg/mL) [%] | Viability (%) of E-11 cells, mean ([1]; peptide 0.01234 mg/mL) [%] | Viability (%) of E-11 cells, mean ([1]; peptide 0.03704 mg/mL) [%] | Viability (%) of E-11 cells, mean ([1]; peptide 0.11111 mg/mL) [%] | Viability (%) of E-11 cells, mean ([1]; peptide 0.33333 mg/mL) [%] | Viability (%) of E-11 cells, mean ([1]; peptide 1.00000 mg/mL) [%] | % of virus inhibition with respect to the controls, SJNNV [2] [%] | AE, adsorption efficiency ([3]; AE = AV/TIV × 100, E-11 cells pre-treated with P4 500 µg/mL 24 h, untreated cells 99.05%) [%] | Intracellular viral replication titre at 48 h post-infection ([3]; E-11 cells pre-treated with P4 500 µg/mL 24 h, RGNNV, cell lysates, 48 hpi, untreated cells 2.40 × 10⁶, n = 3, Fig. 3A) | Viral release in cell supernatants at 48 h post-infection ([3]; E-11 cells pre-treated with P4 500 µg/mL 24 h, RGNNV, supernatants, 48 hpi, untreated cells 6.77 × 10^4, n = 3, Fig. 3B) | Viral progeny (VP) ([3]; E-11 cells pre-treated with P4 500 µg/mL 24 h, then RGNNV MOI 0.01, untreated cells 1.40 × 10^8) | Attached virus (AV), Log ± SEM ([3]; E-11 cells pre-treated with P4 500 µg/mL for 24 h, then RGNNV MOI 0.01 for 45 min, triplicate) | Attached virus (AV) ([3]; E-11 cells pre-treated with P4 500 µg/mL for 24 h, washed, infected with RGNNV MOI 0.01 for 45 min, AV = TIV − NAV, triplicate, untreated cells 9.20 × 10^5 in Table 2) | PR, production rate ([3]; PR = VP/AV, P4 pre-treated E-11 cells, untreated cells 151.57) | RRP, relative ratio of production ([3]; RRP = PR(P4+RGNNV)/PR(RGNNV)) | Clinical signs of VER disease, severity score [4] | Relative percent survival (RPS) [4] [%] | RGNNV cp gene expression in the brain [4] | RGNNV rdrp gene expression in the brain [4] | % of virus inhibition with respect to the controls, RGNNV/SJNNV [5] [%]
ALQATRGAVVAKWW-NH2 [Peptide P5] | 126.6 | 116.7 | 116.4 | 122.7 | 104.3 | 115.8 | – | – | – | – | – | – | – | – | – | – | – | – | – | –
LLWTSSGKEQR-NH2 [Peptide P6] | 157.5 | 139.2 | 138.9 | 152.9 | 146.5 | 128.1 | 90 | – | – | – | – | – | – | – | – | – | – | – | – | –
PDPTDNDHTFD-NH2 [Peptide P4] | 87.4 | 102.6 | 92.4 | 110.6 | 100.5 | 106.4 | – | 98.99 | 1.64 × 10^4 TCID₅₀/mL | 3.36 × 10^3 TCID₅₀/mL | 2.46 × 10^7 TCID50/mL | 5.96 ± 0.005 | 9.21 × 10^5 TCID50/mL | 26.76 | 0.18 | 1 | 81.3 | lowered | lowered | –
PRLGHAARIFQRYA-NH2 [Peptide P3] | 89.4 | 93.2 | 96.3 | 89.8 | 90.9 | 101.7 | 90 | – | – | – | – | – | – | – | – | – | 62.5 | lowered | lowered | 96.84
SVRLSVPSLETPEETTA-NH2 [Peptide P7] | 149.6 | 125.7 | 138.9 | 116.6 | 119.8 | 131.6 | 90 | – | – | – | – | – | – | – | – | ≤ 4 | 68.8 | – | effectively blocked | –
TTKAANPQPRRRANNRRRS-NH2 [Peptide P1] | 123.5 | 129.9 | 100.1 | 96.6 | 109.3 | 91.5 | 90 | – | – | – | – | – | – | – | – | – | – | – | – | –
